Measured values reported in patent US8877719B2, “Pest controlling composition” (Sumitomo Chemical Company, Limited, priority 2009, dated 2014).

Columns and labels:
Type in all cases: in vivo
[1] = test system: Spodoptera litura third-instar larvae; test: Test Example 2: cabbage leaf immersion test, insecticidal ratio on Spodoptera litura third-instar larvae (spinetoram / spiromesifen); conditions: cabbage leaf immersed 60 seconds, four days after
Method: (§1) A flowable formulation containing 11.7 wt % of spinetoram (spinetoram J:spinetoram L=75:25 (weight ratio)) was diluted with water containing 0.02 vol % of a spreading agent (trade name: Sindain, manufactured by Sumitomo Chemical Co., Ltd.) so as to obtain a given concentration.
(§2) A flowable formulation containing 22.9 wt % of spiromesifen (trade name: CLEAZAR, manufactured by Bayer CropScience) was diluted with water containing 0.02 vol % of a spreading agent (trade name: Sindain, manufactured by Sumitomo Chemical Co., Ltd.) so as to obtain a given concentration.
The spinetoram water-diluted solution and spiromesifen water-diluted solution were mixed to prepare a test drug solution.
(§3) Cabbage was planted in a pot having a capacity of 860 ml and allowed to grow to 4-leaves stage. Leaves of the cabbage were cut one by one. One of the cabbage leaves was immersed in a test drug solution for 60 seconds. The cabbage leaf was air-dried, then, the cabbage leaf was placed in a cup having a capacity of 500 ml containing filter paper laid therein. Ten Spodoptera litura third-instar larvae were released in this cup. Four days after, life-or-death of the tested insects was observed. From the observed results, the insecticidal ratio was calculated in the same manner as in Test Example 1. The test was repeated three times.

[2] = test system: Tetranychus urticae female adult insects; test: Test Example 3: kidney bean leaf piece spray test, insecticidal ratio on Tetranychus urticae female adults; conditions: sprayed on kidney bean leaf pieces, three days after
Method: as §1
(§4) A flowable formulation containing 22.4 wt % of spirotetramat (trade name: Movento, manufactured by Bayer CropScience) was diluted with water containing 0.02 vol % of a spreading agent (trade name: Sindain, manufactured by Sumitomo Chemical Co., Ltd.) so as to obtain a given concentration.
as §2
These water-diluted solutions were mixed to prepare a test drug solution.
A kidney bean leaf piece having a diameter of about 2 cm was inoculated with 10 Tetranychus urticae female adult insects. Then, the test drug solution was sprayed in an amount of 0.3 ml per two pieces of the kidney bean leaves. Three days after, life-or-death of the female adult insects was observed. From the observed results, the insecticidal ratio was calculated in the same manner as in Test Example 1. The test was repeated three times.

[3] = test system: Spodoptera litura third-instar larvae; test: Test Example 1: cabbage leaf immersion test, insecticidal ratio on Spodoptera litura third-instar larvae (spinetoram / spirotetramat); conditions: cabbage leaf immersed 60 seconds, four days after
Method: as §1, §4
The spinetoram water-diluted solution and spirotetramat water-diluted solution were mixed to prepare a test drug solution.
as §3, with “The results were corrected by” for “From”, “following formula, thereby calculating” for “observed results, the”, “ratio.” for “ratio was calculated in the same manner as in Test Example 1.”, “times. Insecticidal ratio (%)=100×(Mt−Mc)/(100−Mc)” for “times.”
Mt: insect death ratio (%) in test compound-treated area
Mc: insect death ratio (%) in test compound-non-treated area

Cc1cc(C)c(C2=C(OC(=O)CC(C)(C)C)C3(CCCC3)OC2=O)c(C)c1 [spiromesifen, 2-oxo-3-(2,4,6-trimethylphenyl)-1-oxaspiro[4,4]nona-3-en-4-yl 3,3-dimethylbutanoate]
Insecticidal ratio (%) ([1]; 112 ppm): 3.4% | Insecticidal ratio (%) ([2]; 3.2 ppm): 28.0%

CCOC(=O)OC1=C(c2cc(C)ccc2C)C(=O)N[C@]12CC[C@@H](OC)CC2 [spirotetramat, cis-4-(ethoxycarbonyloxy)-8-methoxy-3-(2,5-xylyl)-1-azaspiro[4,5]dec-3-en-2-one]
Insecticidal ratio (%) ([3]; 56 ppm): 10.3% | Insecticidal ratio (%) ([3]; 112 ppm): 20.7% | Insecticidal ratio (%) ([2]; 0.8 ppm): 0%

spinetoram
Insecticidal ratio (%) ([1]; 0.73 ppm): 6.9% | Insecticidal ratio (%) ([3]; 0.73 ppm): 17.2% | Insecticidal ratio (%) ([2]; 12.5 ppm): 28.4%
